Source: patent EP0415731B1, “Novel entities for cancer therapy” (THE WELLCOME FOUNDATION LIMITED, priority 1989, dated 1991)
Where two headings read alike, the source gives them in different places.

Tests used:
Hep G2 cells [1] = assay: ara ATP formation from (3H) labelled ara-M in infected Hep G2 cells; type: cell-based, human; details: Hep G2 cells infected with pCR78 containing viruses, incubated with (3H) labelled compound; Figure 6
Description: (§1) The replication-defective, full length, artificial retroviruses containing the AFP/VZV TK chimaera were used to infect a human hepatoma cell line called Hep G2 (ATCC KS 8065). Following infection and selection on 1mg geneticin/ml (Trade mark), the cells were assayed for VZV TK activity. In addition, the cells were incubated in the presence of (^3H) labeled 9-(B-D-arabinofuranosyl)-6-methoxy-9H purine (designated as ara-M in the following tables and figures) with subsequent measurement of ara ATP. Finally, cells were cultured in the presence of the above mentioned compound and the IC50 - (growth inhibition) was determined. Cells infected with no virus or N2 virus act as control samples for these experiments. N2 virus contain no VZV TK genetic material.
9-(B-D-arabinofuranosyl)-6-methoxy-9H purine (designated as ara-m) can be selectively monophosphorylated by VZV TK with subsequent anabolism to cytotoxic ara ATP.

Hep G2 cells [2] = assay: Growth inhibition of Hep G2 cells (cell number and DNA content, 5 days); type: cell-based; details: Homo sapiens, read-out: IC50 (50% growth inhibition)
Description: as §1
Hep G2 cells infected with the replication-defective, full length, artificial retroviruses containing the AFP/VZV TK (pCR78) chimaera were incubated in the presence of varying amounts of 9-(B-D-arabinofuranosyl)-6-methoxy-9H purine for 5 days and growth inhibition determined as measured by cell number and DNA content.

COc1ncnc2c1ncn2[C@@H]1O[C@H](CO)[C@@H](O)[C@@H]1O [9-(β-D-arabinofuranosyl)-6-methoxy-9H-purine]
(3H) araATP formation (Hep G2 cells [1]): significant amounts
IC50 (Hep G2 cells [2]; HepG2, 120 h, Hep G2 cells infected with AFP/VZV TK (pCR78) retrovirus, 5 days): 175 µM
IC50 (Hep G2 cells [2]; HepG2, 120 h, Hep G2 cells infected with N2 virus (no VZV TK), 5 days): > 2000 µM
IC50 (Hep G2 cells [2]; HepG2, 120 h, control Hep G2 cells, no virus, 5 days): > 2000 µM
IC50 (Hep G2 cells [2]; HepG2, single cell clones of Hep G2 cells containing the AFP/VZV TK (pCR78) chimaera): ~40 µM
